Data on six compounds can be found in patent publication US7012088B2, “Indolone oxazolidinones and derivatives thereof” (Pharmacia & Upjohn Company, priority 2003, dated 2006).

Values after ≈ are worked out from the molar mass of the structure shown.

The test system of one data set is S. aureus SAUR 9213. In words: MIC by standard agar dilution method, S. aureus. The conditions noted are these: Staphylococcus aureus, SAUR9213, Mueller Hinton agar, overnight at 35° C. The data set is classed as cell-based. From the text: (§1) The oxazolidinone antibacterial agents of this invention have useful activity against a variety of organisms. The in vitro activity of compounds of this invention can be assessed by standard testing procedures such as the determination of minimum inhibitory concentration (MIC) by agar dilution as described in “Approved Standard. Methods for Dilution Antimicrobial Susceptibility Tests for Bacteria That Grow Aerobically”, 3rd. ed., published 1993 by the National Committee for Clinical Laboratory Standards, Villanova, Pa., USA. The in vitro MICs of test compounds were determined by a standard agar dilution method. A stock drug solution of each analog was prepared in the preferred solvent, usually DMSO:H2O (1:3). Serial 2-fold dilutions of each sample are made using 1.0 ml aliquots of sterile distilled water. To each 1.0 ml aliquot of drug was added 9 ml of molten Mueller Hinton agar medium. The drug-supplemented agar was mixed, poured into 15×100 mm petri dishes, and allowed to solidify and dry prior to inoculation. Vials of each of the test organisms are maintained frozen in the vapor phase of a liquid nitrogen freezer. Test cultures are grown overnight at 35° C. on the medium appropriate for the organism. Colonies are harvested with a sterile swab, and cell suspensions are prepared in Trypticase Soy broth (TSB) to equal the turbidity of a 0.5 McFarland standard. A 1:20 dilution of each suspension was made in TSB. The plates containing the drug supplemented agar are inoculated with a 0.001 ml drop of the cell suspension using a Steers replicator, yielding approximately 10^4 to 10^5 cells per spot. The plates are incubated overnight at 35° C. Following incubation the Minimum Inhibitory Concentration (MIC μg/ml), the lowest concentration of drug that inhibits visible growth of the organism, was read and recorded.

The test system of another data set is S. pneumoniae SPNE 9912. In words: MIC by standard agar dilution method, S. pneumoniae. In kind it is cell-based. The conditions noted are these: Streptococcus pneumoniae, SPNE9912, Mueller Hinton agar, overnight at 35° C.
Source text: as §1

On to `CNC(=O)[C@H]1CN(c2ccc3c(c2)C(F)(F)C(=O)N3C)C(=O)O1` [Example 1, (5R)-(−)-3-(3,3-Difluoro-2,3-dihydro-1-methyl-2-oxo-1H-indol-5-yl)-N-methyl-2-oxo-5-oxazolidinecarboxamide], for which the melting point was 242.5 to 245 °C. Moreover, the lowest concentration to inhibit growth against S. aureus SAUR 9213 (MIC) was 2 µg/mL (≈ 6.15 µM). Further, in the data set on S. pneumoniae SPNE 9912, inhibition of growth (MIC) required 2 µg/mL (≈ 6.15 µM).
As to `CN1C(=O)C(F)(F)c2cc(N3C[C@H](C(N)=O)OC3=O)ccc21` [Example 2, (5R)-(−)-3-(3,3-difluoro-2,3-dihydro-1-methyl-2-oxo-1H-indol-5-yl)-2-oxo-5-oxazolidinecarboxamide], the melting point is 274 to 277 °C (dec.). In the data set on S. aureus SAUR 9213, this compound showed an MIC of 2 µg/mL (≈ 6.43 µM). Also, the MIC against S. pneumoniae SPNE 9912 lay within 1 to 2 µg/mL (≈ 3.21 to 6.43 µM).
The matching figures for `CCN1C(=O)C(F)(F)c2cc(N3C[C@H](C(N)=O)OC3=O)ccc21` [Example 3, (5R)-(−)-3-(3,3-difluoro-2,3-dihydro-1-ethyl-2-oxo-1H-indol-5-yl)-2-oxo-5-oxazolidinecarboxamide]: 201 to 203 °C, 8 µg/mL (≈ 24.6 µM) and 4 µg/mL (≈ 12.3 µM).
The matching figures for `CCN1C(=O)C(F)(F)c2cc(N3C[C@H](C(=O)NC)OC3=O)ccc21` [Example 4, (5R)-(−)-3-(3,3-Difluoro-2,3-dihydro-1-ethyl-2-oxo-1H-indol-5-yl)-N-methyl-2-oxo-5-oxazolidinecarboxamide]: 211 to 213 °C, 8 µg/mL (≈ 23.6 µM) and 4 µg/mL (≈ 11.8 µM).
Taken in the same sequence, the figures for `CC(=O)NC[C@H]1CN(c2ccc3c(c2)C(F)(F)C(=O)N3C)C(=O)O1` [Example 5, N-[[(5S)-(−)-3-(3,3-Difluoro-2,3-dihydro-1-methyl-2-oxo-1H-indol-5-yl)-2-oxo-5-oxazolidinyl]methyl]acetamide] were 125 to 127 °C, 2 µg/mL (≈ 5.89 µM) and 1 µg/mL (≈ 2.95 µM).
Compound `CCN1C(=O)C(F)(F)c2cc(N3C[C@H](CNC(C)=O)OC3=O)ccc21` [Example 6, N-[[(5S)-(−)-3-(3,3-Difluoro-2,3-dihydro-1-ethyl-2-oxo-1H-indol-5-yl)-2-oxo-5-oxazolidinyl]methyl]acetamide] came in with a melting point of 139 to 141 °C. The same compound displayed an MIC in the data set on S. aureus SAUR 9213 of 8 µg/mL (≈ 22.6 µM). In addition, the MIC in the data set with S. pneumoniae SPNE 9912 came out at 2 µg/mL (≈ 5.66 µM).
